Measured values: US20040186022A1, “Enhanced herbicides” (priority 1999, published 2004)
Values belong to the compound of their own block, whether it stands above or below them.

What was measured:
[1] = test system: navy dry beans (navy Vista); assay: Synergistic interactions of succinic acid and di-ammonium succinate with herbicidal compounds, navy dry beans; assay type: in vivo, dry bean (navy); details: for Injury rating, average per plot: scale 1-5
From the text: (§1) The herbicides were applied in the “spray to drip” amount or at a calibrated 20-60 gallons/acre. “Spray to drip” is an uncalibrated application of fluid to foliage, where sufficient spray volume is used to sufficiently saturate the foliage surface until excess fluid begins to drip from the foliage.

[2] = test system: black beans (dry bean variety T39); assay: Synergistic interactions of succinic acid and di-ammonium succinate with other herbicidal compounds, dry beans (black); assay type: in vivo; details: for Injury rating, average per plot: scale 1-5
From the text: as §1

[3] = test system: 40 G/a: crab grass, pigweed, chick weed and foxtail; 60 G/a: pigweed, Kentucky bluegrass, foxtail, crab grass and barnyard grass; spray to drip: Kentucky …; assay: Herbicidal activities: synergy between succinic acid and pelargonic acid; assay type: in vivo
From the text: as §1

plants [4] = assay: Synergistic relationship between succinic acid and caprylic/capric acids C/C, herbicidal activity; assay type: in vivo
From the text: as §1

[5] = test system: Kentucky bluegrass, velvetleaf, foxtail, tomato, potato and snapbeans
From the text: as §1

[6] = test system: 60 G/a: lambsquarter, pigweed and velvetleaf; spray to drip: lambsquarter and foxtail; assay: Herbicidal activity of caproic acid with succinic acid and sodium salicylate; assay type: in vivo; details: for Total Injury ratings, Total score: 60 G/a plus spray to drip; for Total injury ratings, 60 G/a: 4 pots/treatment, lambsquarter, pigweed and velvetleaf, rating 1-5 per pot; for Total injury ratings, Spray to drip: 2 pots/treatment, lambsquarter and foxtail
From the text: as §1

[7] = test system: 60 G/a: lambsquarter, pigweed, velvetleaf and foxtail; spray to drip: velvetleaf and foxtail; assay: Herbicidal activity of caprylic acid combined with salts of succinate +/- sodium salicylate; assay type: in vivo
From the text: as §1

[8] = test system: 60 G/a: black nightshade, redroot pigweed, lambsquarter, foxtail, velvetleaf and snapbeans; spray to drip: redroot pigweed, lambsquarter, velvetleaf and …; assay: Efficacy of 2% caprylic with succinic or ammonium succinate in an emulsification system (Emsorb 6900); assay type: in vivo
From the text: as §1

young potato plants = assay: Effects of desiccants and desiccant combinations with other compounds on young potato plants; assay type: in vivo; parameters: All evaluations (total score): scale not given here
From the text: as §1

plants [9] = assay: Herbicidal enhancement of pelargonic by succinic acid and diammonium succinate; assay type: in vivo
From the text: as §1

[10] = test system: 60 G/a: black nightshade, redroot pigweed, foxtail, lambsquarter and snapbeans; spray to drip: redroot pigweed, velvetleaf, nutsedge and foxtail; assay: Efficacy of 3% caprylic with succinic or ammonium succinate in an emulsification system (Emsorb 6900); assay type: in vivo
From the text: as §1

[11] = test system: 60 G/a: velvetleaf, black nightshade, redroot pigweed, foxtail and snapbeans; spray to drip: black nightshade, velvetleaf, foxtail and snapbeans; assay: Efficacy of 1.5% succinic acid with oleic, caprylic or pelargonic acid in an emulsification system (Emsorb 6900); assay type: in vivo; parameters: Injury rating, total score for 2 evaluation, Spray to drip / Injury rating, total score for 2 evaluation, Total Rating: scale not given here
From the text: as §1

plants [12] = assay: Herbicidal activity: comparison of caprylic, pelargonic and an equimolar mixture of caprylic and pelargonic acids; assay type: in vivo
From the text: The herbicides were applied in the “spray to drip” amount or at a calibrated 20-60 gallons/acre. “Spray to drip” is an uncalibrated application of fluid to foliage, where sufficient spray volume is used to sufficiently saturate the foliage surface until excess fluid begins to drip from the foliage. In general, about 5 to 200 gallons/acre, preferably 20-100 gallons/acre can be effective.

[13] = test system: 40 G/a: crab grass, chickweed and common lambsquarter; 60 G/a: redtop, pigweed, foxtail; spray to drip: barnyard grass, foxtail, sudan grass and nutsedge; assay: Herbicidal combinations of caprylic/capric (c/c) or pelargonic acid with equimolar succinic acid and ammonium succinate, on weed varieties; assay type: in vivo
[14] = test system: 60 G/a: redroot pigweed, foxtail and velvetleaf; spray to drip: foxtail, dry beans and pigweed; assay: Herbicidal activity: caprylic acid and succinic acid +/- ammonium sulfate; assay type: in vivo
From the text: as §1

Potato, variety Katahdin = assay: Potato field trial: 2 applications of selected herbicides, including Desiccate II; assay type: in vivo; details: scale 1-5
From the text: as §1

[15] = Measurement of pH values for test desiccants (Example 56); assay type: physicochemical
soybeans [16] = assay: Synergistic relationships: succinic acid + caprylic acid, succinic acid + sodium salicylate, testing soybeans; assay type: in vivo; details: 3 days after a single foliar application, soybean Stine 2250; for Overall Effect: 5 equals profound desiccation
From the text: as §1

soybeans [17] = assay: Synergy comparisons of various organic acids with caprylic acid, testing soybeans; assay type: in vivo; details: 3 days after a single foliar application, average of 2 sites, soybean Stine 2250
From the text: as §1

[18] = Measurement of pH values for test desiccants (Example 55); assay type: physicochemical
Turf = assay: Synergistic relationships between succinic acid and caprylic acid (or sodium salicylate), testing turf; assay type: in vivo; details: 2 days after a single foliar application, 5 equals profound desiccation
From the text: as §1

[19] = test system: chickweed, redtop, velvetleaf, crabgrass and green foxtail; assay: Enhancement of herbicidal activity of caprylic/capric acids (c/c) using selected compounds at equimolar amounts; assay type: in vivo
From the text: as §1

[20] = Day 1, one application at 40 G/acre, treatments 1-4, 9-11 in Emsorb 6900/mineral oil/Hasten, 5-8, 12-14 in 0.3% Sylgard 309
[21] = Day 2, one application at 40 G/acre, treatments 1-4, 9-11 in Emsorb 6900/mineral oil/Hasten, 5-8, 12-14 in 0.3% Sylgard 309
[22] = 40 G/a, 60 G/a and spray to drip
[23] = rating 1 to 5, 5 = complete desiccation of all plants
[24] = 60 G/a, rating 1-5 per pot, 1% Emsorb, 0.3% Hasten

SMILES: O=C(O)CCC(=O)O [0.5% succinic acid, succinic acid]
Injury rating, average per plot [1, 20]: 0
Injury rating, average per plot ([1]; Day 2): 0
Injury rating, average per plot ([1]; Day 3): 0
Injury rating, average per plot ([1]; Day 4): 0
% desiccation (Day 12), foliage [1]: 0%
% desiccation (Day 12), pods [1]: 0%
% desiccation (Day 12), vines [1]: 0%
Injury rating, average per plot ([1]; Day 12): 0
Injury rating, average per plot [2, 21]: 0
% desiccation (Day 12), foliage [2]: 0%
% desiccation (Day 12), pods [2]: 0%
% desiccation (Day 12), vines [2]: 0%
Injury rating, average per plot ([2]; Day 12): 0
Total injury ratings, Total [3, 22]: 0
Total injury ratings, 40 G/a ([3]; 40 G/a, 9 pots/treatment, rating 1-5 per pot, 1.125% Emsorb 6900): 0
Total injury ratings, 60 G/a ([3]; 60 G/a, 10 pots/treatment): 0
Total injury ratings, Spray to drip ([3]; spray to drip, 7 pots/treatment): 0
Injury ratings, Total (plants [4]; 40 G/a + 60 G/a): 0
Injury ratings based on 2 independent evaluations, 40 G/a (plants [4]; 40 G/acre: Canadian thistle, velvet leaf, Johnson grass and giant foxtail, each pot rated 1 to 5): 0
Injury ratings based on 2 independent evaluations, 60 G/a (plants [4]; 60 G/acre: velvetleaf, Johnson grass and giant foxtail, each pot rated 1 to 5): 0
Average rating per pot (plants [4]; [23]): 0

SMILES: O=C([O-])c1ccccc1O.[Na+] [1.5% sodium salicylate, sodium salicylate]
Injury rating, Spray to drip ([5]; rating 1-5 per pot, three evaluations, 30% acetone, 0.3% Sylgard 309): 56.2
Injury rating, Average rating per pot ([5]; scale 1-5, spray to drip): 3.51

SMILES: CCCCCC(=O)O [2% caproic, caproic acid]
Total Injury ratings, Total score [6]: 18.5
Total injury ratings, 60 G/a [6]: 11.2
Total injury ratings, Spray to drip [6]: 7.3

SMILES: CCCCCCCC(=O)O [2% caprylic, caprylic acid]
Total Injury ratings, Total score ([7]; 60 G/a plus spray to drip): 69.2
Total injury ratings, 60 G/a ([7]; 60 G/a, 8 pots/treatment, 2 evaluations, rating 1-5 per pot, 1% Emsorb 6900): 61
Total injury ratings, Spray to drip ([7]; spray to drip, 2 pots/treatment, velvetleaf and foxtail, 1 evaluation): 8.2
Injury rating, total score for 2 evaluations, Total Rating ([8]; 60 G/a plus spray to drip): 123.4
Injury rating, total score for 2 evaluations, 60 G/a [8, 24]: 73.6
Average rating per pot ([8]; scale 1-5): 4.11
Injury rating, total score for 2 evaluations, Spray to drip ([8]; spray to drip): 49.8
Injury ratings of treated plants, day 1 (young potato plants; 1 day after application, 6 = complete desiccation): 5
Injury ratings of treated plants, day 3 (young potato plants; 3 days after application, 6 = complete desiccation): 5
Injury ratings of treated plants, day 6 (young potato plants; 6 days after application, 6 = complete desiccation): 5
Injury ratings of treated plants, day 17 (young potato plants; 17 days after application, 6 = complete desiccation): 5
Injury ratings of treated plants, day 22 (young potato plants; 22 days after application, 6 = complete desiccation): 5.5
Injury ratings of treated plants, day 27 (young potato plants; 27 days after application, 6 = complete desiccation): 5.5
Injury ratings of treated plants, […] (young potato plants; […] after application, 6 = complete desiccation): 3.5
All evaluations (total score) (young potato plants; total of all evaluation times): 34.5

SMILES: CCCCCCCCC(=O)O [2.5% pelargonic]
Injury ratings based on 2 independent evaluations, 40 G/a (plants [9]; 40 G/a: lambsquarter, velvetleaf and green foxtail, each pot rated 1 to 5): 79.2
Injury ratings based on 2 independent evaluations, 60 G/a (plants [9]; 60 G/a: pigweed, chickweed, crabgrass, green foxtail, velvetleaf, lambsquarter and wheat, each pot rated 1 to 5): 102.2
Injury ratings based on 2 independent evaluations, Spray to drip (plants [9]; Spray to drip: nutsedge, velvetleaf, green foxtail, giant foxtail and barnyard grass, each pot rated 1 to 5): 53.8
Average rating per pot (plants [9]; [23]): 4.36

SMILES: CCCCCC(=O)O [3% caproic, caproic acid]
Total Injury ratings, Total score [6]: 20.9
Total injury ratings, 60 G/a [6]: 13.9
Total injury ratings, Spray to drip [6]: 7

SMILES: CCCCCCCC(=O)O [3% caprylic, caprylic acid]
Injury rating, average per plot [1, 20]: 3.5
Injury rating, average per plot ([1]; Day 2): 3.93
Injury rating, average per plot ([1]; Day 3): 3.93
Injury rating, average per plot ([1]; Day 4): 4
% desiccation (Day 12), foliage [1]: 50%
% desiccation (Day 12), pods [1]: 80%
% desiccation (Day 12), vines [1]: 10%
Injury rating, average per plot ([1]; Day 12): 4.2
Injury rating, average per plot [2, 21]: 4
% desiccation (Day 12), foliage [2]: 80%
% desiccation (Day 12), pods [2]: 95%
% desiccation (Day 12), vines [2]: 92%
Injury rating, average per plot ([2]; Day 12): 4.73
Injury rating, total score for 2 evaluations, Total Rating ([10]; 60 G/a plus spray to drip): 178.4
Injury rating, total score for 2 evaluations, 60 G/a [10, 24]: 142
Average rating per pot ([10]; scale 1-5): 4.05
Injury rating, total score for 2 evaluations, Spray to drip ([10]; spray to drip): 36.6
Injury rating, total score for 2 evaluation, Total Rating ([11]; 60 G/a plus spray to drip): 123.5
Injury rating, total score for 2 evaluation, 60 G/a [11, 24]: 88.1
Average rating per pot ([11]; scale 1-5): 4.41
Injury rating, total score for 2 evaluation, Spray to drip ([11]; spray to drip): 35.4
Injury ratings based on 2 independent evaluations, 40 G/acre (plants [12]; 40 G/acre: chickweed, redroot pigweed, lambsquarter and green foxtail, each pot rated 1 to 5): 40.8
Injury ratings based on 2 independent evaluations, 60 G/acre (plants [12]; 60 G/acre: chickweed, redroot pigweed, lambsquarter, green foxtail, crabgrass and wheat, each pot rated 1 to 5): 51.6
Average rating per pot (plants [12]; [23]): 4.16

SMILES: CCCCCCCCC(=O)O [3% pelargonic acid, pelargonic acid]
Total injury ratings, Total [13, 22]: 185.8
Total injury ratings, 40 G/a ([13]; 40 G/a, 10 pots/treatment, two evaluations, rating 1-5 per pot, 1% Emsorb 6900): 87.7
Total injury ratings, 60 G/a ([13]; 60 G/a, 7 pots/treatment, two evaluations): 60.8
Average rating/pot ([13]; scale 1-5): 4.42
Total injury ratings, Spray to drip ([13]; spray to drip, 8 pots/treatment, one evaluation): 37.3

SMILES: CCCCCCCC(=O)O [4% caprylic acid, caprylic acid]
Total Injury ratings, combined, for two separate evaluations, Total Rating ([14]; 60 G/a plus spray to drip): 116.8
Total Injury ratings, combined, for two separate evaluations, 60 G/a ([14]; 60 G/a, 7 pots/treatment, rating 1-5 per pot, 1% Emsorb 6900): 60.7
Average rating/pot ([14]; scale 1-5): 4.49
Total Injury ratings, combined, for two separate evaluations, Spray to drip ([14]; spray to drip, 6 pots/treatment): 56.1

SMILES: CCCCCCCCC(=O)O [5% pelargonic, pelargonic acid]
Injury rating, average per plot (Potato, variety Katahdin; Day 1, 40-42 G/acre, 2nd treatment 2 days after 1st): 4.07
Injury rating, average per plot (Potato, variety Katahdin; Day 2): 4
Injury rating, average per plot (Potato, variety Katahdin; Day 3): 4.13
Injury rating, average per plot (Potato, variety Katahdin; Day 5): 4.43

pH Value [15]: 6.65
SMILES: NCCC(=O)O [Beta-Alanine (0.5%)]

SMILES: CCCCCCCC(=O)O [Caprylic Acid (1%)]
Foliage Affected (%) (soybeans [16]): 25-30%
Overall Effect (soybeans [16]): 2.5

SMILES: O=C(O)C(O)C(O)C(=O)O [L-Tartaric Acid (0.5%)]
Foliage Affected (%) (soybeans [17]): 0%
Overall Effect (soybeans [17]; 5 equals profound desiccation): 0
pH Value [18]: 1.52
pH Value [15]: 1.72

SMILES: O=C([O-])c1ccccc1O.[Na+] [Sodium Salicylate (0.5%)]
pH Value [15]: 4.48

SMILES: O=C(O)CCC(=O)O [Succinic Acid (0.5)]
Overall Effect (Turf): 0

SMILES: N.N.O=C(O)CCC(=O)O [ammonium succinate]
Rating of additive tested alone ([13]; footnote): Since succinic acid (or ammonium succinate) tested alone had a rating of zero, pelargonic acid (or c/c) + succinic acid (or ammonium succinate) were synergistic. The exception was: 3% pelargonic acid + 1.26% ammonium succinate

SMILES: O=C(O)CCC(=O)O [succinic acid (1%), succinic acid]
Relative injury ratings, Day #2 ([19]; Day 2 after treatment, 40 G/acre, 8 pots, rating 1-5 per pot, […] Emsorb 6900, […] mineral oil): 0
Relative injury ratings, Day #4 ([19]; Day 4 after treatment): 0
Relative injury ratings, Day #5 ([19]; Day 5 after treatment): 0
Average rating per pot ([19]; scale 1-5): 0
Foliage Affected (%) (soybeans [16]): 0%
Overall Effect (soybeans [16]): 0
